Experimental data: US11878966B2, “Substituted 4-benzyl and 4-benzoyl piperidine derivates” (89BIO LTD, priority 2015, dated 2024)

target: T1, recombinant human baculovirus-expressed GST-tagged FASN (Homo sapiens, UniProt P49327); assay: FASN enzyme activity assay: fluorescence-based detection of CoA with CPM; format: biochemical; settings: 5 nM FASN, 150 μM NADPH, 10 μM acetyl-CoA, 25 μM malonyl-CoA, 90 minutes incubation
T1 construct: GST; host or cells: baculovirus expression system (insect cells implied)
Procedure, shortened: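 IC50 values were fitted (variable-slope sigmoid) to percent inhibition from CPM fluorescence (390/530 nm) reporting free CoA after a 30 min labelling step. The reaction ran 90 min after malonyl-CoA (25 μM) addition, with 10 μM acetyl-CoA, 150 μM NADPH, 5 nM recombinant GST-FASN, 50 mM HEPES pH 7.5 and 0.5% DMSO.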

T1 sequence (P49327 whole entry): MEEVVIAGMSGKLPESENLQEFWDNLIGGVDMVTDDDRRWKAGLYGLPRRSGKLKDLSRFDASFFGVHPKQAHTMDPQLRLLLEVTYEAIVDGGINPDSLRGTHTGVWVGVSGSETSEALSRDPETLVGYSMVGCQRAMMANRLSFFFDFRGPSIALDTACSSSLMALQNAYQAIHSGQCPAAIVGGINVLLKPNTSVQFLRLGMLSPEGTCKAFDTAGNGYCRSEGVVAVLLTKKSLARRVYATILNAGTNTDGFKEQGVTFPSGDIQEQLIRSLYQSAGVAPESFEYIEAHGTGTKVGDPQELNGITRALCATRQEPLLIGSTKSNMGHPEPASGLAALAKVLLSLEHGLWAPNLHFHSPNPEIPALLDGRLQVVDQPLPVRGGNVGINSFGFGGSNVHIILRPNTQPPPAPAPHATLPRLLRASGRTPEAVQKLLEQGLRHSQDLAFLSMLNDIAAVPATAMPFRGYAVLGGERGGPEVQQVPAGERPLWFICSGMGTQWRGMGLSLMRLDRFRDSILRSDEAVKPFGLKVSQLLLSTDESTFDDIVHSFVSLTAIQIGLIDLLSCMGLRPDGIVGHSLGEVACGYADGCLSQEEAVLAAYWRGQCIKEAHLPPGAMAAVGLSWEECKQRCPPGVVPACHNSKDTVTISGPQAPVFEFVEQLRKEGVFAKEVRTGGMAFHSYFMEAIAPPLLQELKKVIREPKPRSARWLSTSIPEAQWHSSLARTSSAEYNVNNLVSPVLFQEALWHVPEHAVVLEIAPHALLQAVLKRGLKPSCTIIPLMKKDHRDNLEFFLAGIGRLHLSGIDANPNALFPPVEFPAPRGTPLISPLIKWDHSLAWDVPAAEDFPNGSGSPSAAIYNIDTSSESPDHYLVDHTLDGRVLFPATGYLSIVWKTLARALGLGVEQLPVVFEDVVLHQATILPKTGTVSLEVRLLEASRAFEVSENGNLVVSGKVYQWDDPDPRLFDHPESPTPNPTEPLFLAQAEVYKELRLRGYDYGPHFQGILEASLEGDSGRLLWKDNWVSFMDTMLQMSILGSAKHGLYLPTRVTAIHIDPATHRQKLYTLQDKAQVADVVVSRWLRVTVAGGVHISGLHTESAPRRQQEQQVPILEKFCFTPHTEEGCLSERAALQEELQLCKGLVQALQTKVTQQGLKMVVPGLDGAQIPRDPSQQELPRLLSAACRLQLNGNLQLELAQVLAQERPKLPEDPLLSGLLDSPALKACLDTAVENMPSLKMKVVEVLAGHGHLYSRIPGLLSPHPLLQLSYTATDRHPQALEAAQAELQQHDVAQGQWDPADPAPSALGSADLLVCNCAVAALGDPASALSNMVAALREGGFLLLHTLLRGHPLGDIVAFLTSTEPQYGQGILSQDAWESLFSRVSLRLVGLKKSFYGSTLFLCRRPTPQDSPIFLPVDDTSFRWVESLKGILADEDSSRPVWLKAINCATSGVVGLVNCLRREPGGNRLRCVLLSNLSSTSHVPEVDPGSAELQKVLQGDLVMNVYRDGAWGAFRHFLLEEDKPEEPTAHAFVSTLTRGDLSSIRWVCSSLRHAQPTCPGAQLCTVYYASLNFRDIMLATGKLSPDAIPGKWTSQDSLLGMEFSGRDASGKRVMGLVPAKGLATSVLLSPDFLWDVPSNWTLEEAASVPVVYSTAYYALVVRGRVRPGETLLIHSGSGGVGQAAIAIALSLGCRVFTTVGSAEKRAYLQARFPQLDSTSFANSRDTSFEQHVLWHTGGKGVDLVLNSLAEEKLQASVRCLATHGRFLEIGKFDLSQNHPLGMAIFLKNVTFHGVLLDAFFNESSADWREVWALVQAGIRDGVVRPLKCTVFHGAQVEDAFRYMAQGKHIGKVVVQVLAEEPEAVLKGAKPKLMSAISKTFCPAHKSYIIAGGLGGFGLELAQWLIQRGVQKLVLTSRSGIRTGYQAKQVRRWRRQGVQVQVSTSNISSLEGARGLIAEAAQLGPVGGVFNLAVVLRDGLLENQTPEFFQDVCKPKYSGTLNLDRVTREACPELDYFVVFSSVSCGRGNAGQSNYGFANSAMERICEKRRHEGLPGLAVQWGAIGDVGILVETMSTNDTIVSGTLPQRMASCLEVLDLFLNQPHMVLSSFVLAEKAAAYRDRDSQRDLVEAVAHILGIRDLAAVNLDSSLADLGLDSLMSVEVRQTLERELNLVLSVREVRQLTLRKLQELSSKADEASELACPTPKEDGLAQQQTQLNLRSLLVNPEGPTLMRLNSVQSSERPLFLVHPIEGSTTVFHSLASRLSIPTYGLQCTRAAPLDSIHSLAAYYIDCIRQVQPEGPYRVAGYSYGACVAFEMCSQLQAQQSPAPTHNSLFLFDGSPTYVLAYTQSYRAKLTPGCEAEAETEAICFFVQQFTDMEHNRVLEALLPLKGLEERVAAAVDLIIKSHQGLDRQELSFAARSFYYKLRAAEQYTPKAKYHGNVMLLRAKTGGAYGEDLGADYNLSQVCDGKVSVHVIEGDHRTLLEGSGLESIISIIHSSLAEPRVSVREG

Row | IC50 [nM] | Compound
1 | 1 to 99 | Cc1c(-c2ccc(CC3=CCN(C(=O)[C@H]4CCCO4)CC3)cc2)ccc2cccnc12 [Example 200, (R)-(4-(4-(8-methylquinolin-7-yl)benzyl)-3,6-dihydropyridin-1(2H)-yl)(tetrahydrofuran-2-yl)methanone]
2 | 1 to 99 | Cc1c(-c2ccc(C(OCCCN3CCOCC3)C3CCN(C(=O)[C@H]4CCCO4)CC3)cc2)cnc2ccccc12 (stereo partly shown) [Example 87]
3 | 1 to 99 | O=C(C1CC1)N1CCC(F)(Cc2ccc(-c3ccc4cnccc4c3)cc2)CC1 [Example 175, Cyclopropyl(4-fluoro-4-(4-(isoquinolin-6-yl)benzyl)piperidin-1-yl)methanone]
4 | 100 to 999 | O=C(C1CC1)N1CCC(F)(Cc2ccc(-c3ccc4cccnc4c3)cc2)CC1 [Example 173, Cyclopropyl(4-fluoro-4-(4-(quinolin-7-yl)benzyl)piperidin-1-yl)methanone]
5 | 1000 to 10000 | O=C(N1CCC(O)(Cc2ccc(-c3cc4ccccc4cn3)cc2)CC1)N1CCCO1 [Example 145, (4-hydroxy-4-(4-(isoquinolin-3-yl)benzyl)piperidin-1-yl)(isoxazolidin-2-yl)methanone]
6 | 1000 to 10000 | CC(C)C(=O)N1CCC(C2(c3ccc(-c4ccc5cccnc5c4)cc3)OCCCO2)CC1 [Example 121, 2-Methyl-1-{4-[2-(4-quinolin-7-yl-phenyl)-1,3-dioxinan-2-yl]-piperidin-1-yl}-propan-1-one]
7 | 1 to 99 | CCC(=O)N1CCC(C(=NOC)c2ccc(-c3ccc4cccnc4c3)cc2)CC1 (racemic) [Example 50, 1-{4-[[Methoxyimino]-(4-quinolin-7-yl-phenyl)-methyl]-piperidin-1-yl}-propan-1-one]
8 | 1 to 99 | CCC(=O)N1CCC(F)(C(OC)c2ccc(-c3ccc4cccnc4c3C)cc2)CC1 (stereo not shown) [Example 225, 1-(4-Fluoro-4-{methoxy-[4-(8-methyl-quinolin-7-yl)-phenyl]-methyl}-piperidin-1-yl)-propan-1-one]
9 | 1 to 99 | CCNC(=O)N1CCC(Cc2ccc(-c3ccc4cccnc4c3C)cc2)CC1 [Example 229, N-ethyl-4-[[4-(8-methyl-7-quinolyl)phenyl]methyl]piperidine-1-carboxamide]
10 | 100 to 999 | O=C(C1CC1)N1CCC(C2(c3ccc(-c4cnc5ccccc5c4)cc3)CC2)CC1 [Example 44, Cyclopropyl-{4-[1-(4-quinolin-3-yl-phenyl)-cyclopropyl]-piperidin-1-yl}-methanone]
11 | 1000 to 10000 | O=C(C1CC1)N1CCC(C2(c3ccc(-c4ccc5ncccc5c4)cc3)OCCO2)CC1 [Example 99, Cyclopropyl-{4-[2-(4-quinolin-6-yl-phenyl)-1,3-dioxolan-2-yl]-piperidin-1-yl}-methanone]
12 | 1 to 99 | CCC(=O)N1CCC(C(CC)c2ccc(-c3cnc4ccccc4c3)cc2)CC1 (stereo not shown) [Example 47, 1-{4-[1-(4-Quinolin-3-yl-phenyl)-propyl]-piperidin-1-yl}-propan-1-one]
13 | 1 to 99 | CCC(=O)N1CC=C(Cc2ccc(-c3cnc4ccccc4c3C)cc2)CC1 [Example 196, 1-(4-(4-(4-Methylquinolin-3-yl)benzyl)-5,6-dihydropyridin-1(2H)-yl)propan-1-one]
14 | 100 to 999 | CCC(=O)N1CCC(C(=O)c2c(F)cc(-c3ccc4cnccc4c3)cc2F)CC1 [Example 138, 1-[4-(2,6-Difluoro-4-isoquinolin-6-yl-benzoyl)-piperidin-1-yl]-propan-1-one]
15 | 1 to 99 | O=C(C1CC1)N1CCC(Cc2ccc(-c3ccc4cccnc4c3Cl)cc2)CC1 [Example 30, {4-[4-(8-Chloroquinolin-7-yl)-benzyl]-piperidin-1-yl}-cyclopropylmethanone]
16 | 1 to 99 | CCC(=O)N1CCC(F)(Cc2ccc(-c3cnc4ccccc4c3Cl)cc2)CC1 [Example 193, 1-(4-(4-(4-chloroquinolin-3-yl)benzyl)-4-fluoropiperidin-1-yl)propan-1-one]

Row | IC50 [nM] | Compound
17 | 1000 to 10000 | CCC(=O)N1CCC(C(CC)(OC)c2ccc(-c3ccc4cccnc4c3)cc2)CC1 (stereo not shown) [Example 216, 1-{4-[1-Methoxy-1-(4-quinolin-7-yl-phenyl)-propyl]-piperidin-1-yl}-propan-1-one]
18 | 1 to 99 | CC(C)(c1ccc(-c2cnc3ccccc3c2)cc1)C1CCN(C(=O)[C@H]2CCCO2)CC1 [Example 203]
19 | 1000 to 10000 | CCC(=O)N1CCC(C(=O)c2ccc(-c3ccc4cccnc4c3)cc2)CC1 [Example 124, 1-[4-(4-Quinolin-7-yl-benzoyl)-piperidin-1-yl]-propan-1-one]
20 | 1 to 99 | CC(c1ccc(-c2cnc3ccccc3c2Cl)cc1)C1CCN(C(=O)C2CC2)CC1 (stereo not shown) [Example 76, (4-{1-[4-(4-Chloroquinolin-3-yl)-phenyl]-ethyl}-piperidin-1-yl)-cyclopropylmethanone]
21 | 1000 to 10000 | CCC(=O)N1CCC(C2(c3ccc(-c4ccc5ncccc5c4)cc3)OCCO2)CC1 [Example 104, 1-{4-[2-(4-Quinolin-6-yl-phenyl)-1,3-dioxolan-2-yl]-piperidin-1-yl}-propan-1-one]
22 | 1 to 99 | CCC(=O)N1CCC(Cc2ccc(-c3ccc4c(C)nccc4c3)cc2)CC1 [Example 35, 1-{4-[4-(1-methylisoquinolin-6-yl)-benzyl]-piperidin-1-yl}-propan-1-one]
23 | 100 to 999 | O=C(C1CC1)N1CC=C(Cc2ccc(-c3ccc4cnccc4c3)cc2)CC1 [Example 176, Cyclopropyl(4-(4-(isoquinolin-6-yl)benzyl)-5,6-dihydropyridin-1(2H)-yl)methanone]
24 | 1 to 99 | CC(c1ccc(-c2cnc3ccccc3c2)cc1)C1CCN(C(=O)C2CC2)CC1 (stereo not shown) [Example 58, Cyclopropyl-{4-[1-(4-quinolin-3-yl-phenyl)-ethyl]-piperidin-1-yl}-methanone]
25 | 1 to 99 | O=C(C1CC1)N1CCC(Cc2ccc(-c3cnc4ccccc4c3)cc2)CC1 [Example 3, Cyclopropyl-[4-(4-quinolin-3-yl-benzyl)-piperidin-1-yl]-methanone]
26 | 100 to 999 | Cc1c(-c2ccc(CC3CCN(C(=O)C4CC4)CC3)cc2)ccc2nccn12 [Example 95, Cyclopropyl-{4-[4-(5-methylimidazo[1,2-a]pyridin-6-yl)-benzyl]-piperidin-1-yl}-methanone]
27 | 1 to 99 | Cc1c(-c2ccc(CC3(F)CCN(C(=O)[C@H]4CCCO4)CC3)cc2)ccc2nccn12 [Example 97, (R)-(4-fluoro-4-(4-(5-methylimidazo[1,2-a]pyridin-6-yl)benzyl)piperidin-1-yl)(tetrahydrofuran-2-yl)methanone]
28 | 1000 to 10000 | O=C(C1CC1)N1CC=C(Cc2ccc(-c3ccc4occc4c3)cc2)CC1 [Example 180, (4-(4-(benzofuran-5-yl)benzyl)-5,6-dihydropyridin-1(2H)-yl)(cyclopropyl)methanone]
29 | 1 to 99 | O=C(c1ccc(-c2cnc3ccccc3c2)cc1)C1CCN(C(=O)[C@H]2CCCO2)CC1 [Example 49, [4-(4-Quinolin-3-yl-benzoyl)-piperidin-1-yl]-(R)-tetrahydrofuran-2-yl-methanone]
30 | 1 to 99 | CCC(=O)N1CCC(Cc2ccc(-c3ccc4cccnc4c3C)cc2)CC1 [Example 23, 1-{4-[4-(8-Methylquinolin-7-yl)-benzyl]-piperidin-1-yl}-propan-1-one]
31 | 1 to 99 | CCONC(=O)N1CCC(Cc2ccc(-c3ccc4cccnc4c3C)cc2)CC1 [Example 232, N-ethoxy-4-[[4-(8-methyl-7-quinolyl)phenyl]methyl]piperidine-1-carboxamide]
